In US20020107228A1, “Topical bisphosphonates for prevention of bone resorption” (Merck & Co., Inc, priority 1996, published 2002):

Legend:
Wistar rats [1] = conditions: topical, 1 mm GELFOAM pellet soaked in 0.025 ml of 20 mg/ml alendronate in saline, in situ at least two hours; sacrifice 21 days after surgery; vs GELFOAM-only control side
Description: Wistar rats were used in the following experiment. The right side of the mandible was used as the experimental side and the left side was used as the control.
The rats were anesthetized prior to surgery using a mixture of 25 mg/kg body weight of KETALAR (Malgene, Lyon, France) and 42 mg/kg body weight of XYLAZINE (Rampun Bayer, Leverkusen, Germany) intraperitoneally (IP).
A mucoperiosteal flap was made on both the buccal and lingual aspects in the region of premolars and molars on both sides of the mandible, two quadrants per rat. The flap was elevated using a special small periosteal elevator. A 1 mm diameter piece of GELFOAM (Upjohn Co., Kalamazoo, Mich.) which was soaked in 0.025 ml alendronate solution (below) was applied to the alveolar bone on both buccal and lingual aspects on the experimental (right) side and the flap was then readapted immediately in place without sutures.
The alendronate solution was prepared by dissolving 20 mg alendronate in 1 ml saline.
A GELFOAM pellet of 1 mm diameter, identical to the alendronate-soaked pellet, but lacking the alendronate, was applied to the alveolar bone in the control side. The entire procedure lasted about 20-40 seconds. The GELFOAM pellets remained in situ for at least two hours while the anesthesia was effected. The rats were fed a soft diet for 24 hours after surgery to avoid flap displacement. […]

Wistar rats [2] = conditions: sacrifice 3 weeks after flap
Description: 63 Wistar rats were used in this experiment, and were divided into the four groups. Group A: 15 rats received 0.05 mg/kg body weight of alendronate. Group B: 15 rats received 0.25 mg/kg body weight of alendronate. Group C: 15 rats received 0.5 mg/kg body weight of alendronate. Group D was the control group, where 18 rats received saline. The alendronate sodium or saline was administered one week prior to surgery, at the day of surgery before the surgery was performed, and one week following surgery. The drug was administered IV in the dorsal vein of the penis.
In one experiment, one group of rats were anesthetized prior to surgery or alendronate administration using a mixture of 25 mg/kg body weight of KETALAR (Malgene, Lyon France), and 42 mg/kg body weight XYLAZINE (Rampun Bayer, Leverkusen, Germany) intraperitoneally (IP). A portion of these rats also received 25 mg/kg alendronate IP. […] The flap was elevated using a special small periosteal elevator, and readapted immediately in place without sutures. […]
In another set of experiments, alendronate was applied locally at three dose levels using a wet gauze sponge soaked with a solution of 0.15, 0.75, and 1.5 mg/ml on the exposed bone on the experimental side and saline on the exposed bone on the control side for 10 seconds. Since the sponge could absorb 0.1 ml, the maximum calculated amount of drug applied was 0.5 mg/kg body weight. […]

alveolar bone resorption = conditions: Yaffe et al. 1995, cited from earlier work

In the case of `NCCCC(O)(P(=O)(O)O)P(=O)(O)O` [alendronate, 4-amino-1-hydroxy-butylidene 1,1,-bisphosphonic acid], the “bone resorption (alveolar bone, X-ray microradiography)” value (Wistar rats [1]) is reported as “inhibited”, the “alveolar bone resorption (X-ray microradiography)” value (Wistar rats [2]; IV, all doses (0.05, 0.25, 0.5 mg/kg), one week before, day of and one week after surgery) is reported as “reduced” and the “effect on reducing bone resorption (alveolar bone, X-ray microradiography)” value (Wistar rats [2]; applied locally for 10 seconds on alveolar bone during surgery, wet gauze sponge, 0.15, 0.75 and 1.5 mg/ml) is reported as “no noticeable effect”. The “inhibiting bone resorption following surgery” value (alveolar bone resorption; alendronate solutions applied topically) was “not found to be effective” and the “amount of alveolar bone resorption following surgery” value (alveolar bone resorption; intravenous administration) was “reduce”.
